Activity calls are given as the source filed them. The calls are words filed in the database; no cut-off is given here.
Tests used:
[1] = Induction of singlet oxygen generation in DPBF solution assessed as singlet oxygen quantum yield irradiated with 80 mW/cm2 light by DPBF-based assay; format: functional
[2] = Octanol-water partition coefficient, logP of compound incubated for 24 hrs under shaking condition; format: physicochemical
Staphylococcus aureus [3] = assay: Photodynamic antibacterial activity against Staphylococcus aureus assessed as bacterial eradication preincubated for 20 mins in dark condition followed by 18 J/cm2 LED light irradiation and measured after 18 hrs by broth microdilution method; format: functional; settings: light or radiation study, 18.33 h, time 1100 min
Escherichia coli [4] = assay: Photodynamic antibacterial activity against Escherichia coli assessed as bacterial eradication preincubated for 20 mins in dark condition followed by 18 J/cm2 LED light irradiation and measured after 18 hrs by broth microdilution method; format: functional; settings: light or radiation study, 18.33 h, time 1100 min
Candida albicans [5] = assay: Photodynamic antifungal activity against Candida albicans assessed as fungal eradication preincubated for 20 mins in dark condition followed by 18 J/cm2 LED light irradiation and measured after 18 hrs by broth microdilution method; format: functional; settings: light or radiation study, 18.33 h, time 1100 min
Staphylococcus aureus [6] = assay: Photodynamic antibacterial activity against methicillin resistant Staphylococcus aureus assessed as bacterial eradication preincubated for 20 mins in dark condition followed by 18 J/cm2 LED light irradiation and measured after 18 hrs by broth microdilution method; format: functional; settings: light or radiation study, 18.33 h, time 1100 min
Staphylococcus aureus [7] = assay: Antibacterial activity against Staphylococcus aureus up to 80 uM by broth microdilution method; format: functional, organism-based; settings: dose microM <=80
Escherichia coli [8] = assay: Antibacterial activity against Escherichia coli up to 80 uM by broth microdilution method; format: functional, organism-based; settings: dose microM <=80
Candida albicans [9] = assay: Antifungal activity against Candida albicans up to 80 uM by broth microdilution method; format: functional, organism-based; settings: dose microM <=80
Staphylococcus aureus [10] = assay: Antibacterial activity against methicillin resistant Staphylococcus aureus up to 80 uM by broth microdilution method; format: functional, organism-based; settings: dose microM <=80
[11] = Drug localization in peripheral edge of Escherichia coli at 10 uM incubated for 30 mins by fluorescent dye based confocal microscopic analysis; format: ADME; settings: 0.5 h
[12] = Drug uptake in human HaCaT cells at 5 uM measured after 10 to 30 mins by fluorescence based confocal laser scanning microscopic analysis; format: ADME, cell-based; settings: time 10-30 min
Cell membrane [13] = assay: Disruption of cell membrane integrity in Staphylococcus aureus at 2 uM irradiated with 6J/cm2 light followed by compound exposure for 10 mins by FL-4L/propidium iodide Live/dead staining based laser confocal microscopic analysis
Staphylococcus aureus [14] = assay: Photodynamic antimicrobial activity against Staphylococcus aureus preincubated for 10 mins in dark followed by irradiation with 6J/cm2 light and measured after incubation for 36 to 48 hrs; format: functional, organism-based; settings: dose 3-18 µM, time 2170-2890 min
Escherichia coli [15] = assay: Photodynamic antimicrobial activity against Escherichia coli preincubated for 10 mins in dark followed by irradiation with 6J/cm2 light and measured after incubation for 36 to 48 hrs; format: functional, organism-based; settings: dose 2-10 µM, time 2170-2890 min
Candida albicans [16] = assay: Photodynamic antimicrobial activity against Candida albicans preincubated for 10 mins in dark followed by irradiation with 9J/cm2 light and measured after incubation for 36 to 48 hrs; format: functional, organism-based; settings: dose 2-10 µM, time 2170-2890 min
Staphylococcus aureus [17] = assay: Photodynamic antimicrobial activity against methicillin resistant Staphylococcus aureus preincubated for 10 mins in dark followed by irradiation with 6J/cm2 light and measured after incubation for 36 to 48 hrs; format: functional, organism-based; settings: dose 2-10 µM, time 2170-2890 min
Staphylococcus aureus [18] = assay: Antimicrobial activity against Staphylococcus aureus incubated for 36 to 48 hrs under dark conditions; format: functional, organism-based; settings: time 36-48 hrs
Escherichia coli [19] = assay: Antimicrobial activity against Escherichia coli incubated for 36 to 48 hrs under dark conditions; format: functional, organism-based; settings: time 36-48 hrs
Candida albicans [20] = assay: Antimicrobial activity against Candida albicans incubated for 36 to 48 hrs under dark conditions; format: functional, organism-based; settings: time 36-48 hrs
Staphylococcus aureus [21] = assay: Antimicrobial activity against methicillin resistant Staphylococcus aureus incubated for 36 to 48 hrs under dark conditions; format: functional, organism-based; settings: time 36-48 hrs
Staphylococcus aureus [22] = assay: Binding affinity to Staphylococcus aureus cell wall assessed as bound fraction at 25 uM measured after 3 to 10 mins; settings: time 3-10 min
Escherichia coli [23] = assay: Binding affinity to Escherichia coli cell wall assessed as bound fraction at 25 uM measured after 3 to 10 mins; settings: time 3-10 min
Candida albicans [24] = assay: Binding affinity to Candida albicans cell wall assessed as bound fraction at 25 uM measured after 3 to 10 mins; settings: time 3-10 min
Staphylococcus aureus [25] = assay: Binding affinity to Staphylococcus aureus cell wall at 50 uM preincubated with 12.5 to 50 mM Ca2+ for 30 mins followed by incubation with compound for 30 mins
Escherichia coli [26] = assay: Binding affinity to Escherichia coli cell wall at 50 uM preincubated with 12.5 to 50 mM Ca2+ for 30 mins followed by incubation with compound for 30 mins
Candida albicans [27] = assay: Binding affinity to Candida albicans cell wall at 50 uM preincubated with 12.5 to 50 mM Ca2+ for 30 mins followed by incubation with compound for 30 mins
Cell membrane [28] = assay: Disruption of cell membrane integrity in Escherichia coli at 2 uM irradiated with 6J/cm2 light followed by compound exposure for 10 mins by FL-4L/propidium iodide Live/dead staining based laser confocal microscopic analysis
Candida albicans [29] = assay: Disruption of cell membrane integrity in Candida albicans at 2 uM irradiated with 6J/cm2 light followed by compound exposure for 10 mins by FL-4L/propidium iodide Live/dead staining based laser confocal microscopic analysis
HaCaT [30] = assay: Dark toxicity in human HaCaT cells assessed as reduction in cell viability incubated for 30 mins under dark conditions by MTT assay; format: cell-based; settings: 0.5 h
HaCaT [31] = assay: Phototoxicity against human HaCaT cells assessed as reduction in cell viability preincubated for 30 mins followed by irradiation with 6J/cm2 light and measured after 24 hrs by MTT assay; format: cell-based; settings: light or radiation study
Staphylococcus aureus [32] = assay: Light dose-dependent antimicrobial activity against Staphylococcus aureus at 2 to 4 uM preincubated for 10 mins in dark followed by irradiation with 0.6 to 6J/cm2 light dose incubated for 36 to 48 hrs; format: functional, organism-based; settings: dose 2-4 µM, time 2170-2890 min
Escherichia coli [33] = assay: Light dose-dependent antimicrobial activity against Escherichia coli at 2 to 4 uM preincubated for 10 mins in dark followed by irradiation with 0.6 to 6J/cm2 light dose incubated for 36 to 48 hrs; format: functional, organism-based; settings: dose 2-4 µM, time 2170-2890 min
Candida albicans [34] = assay: Light dose-dependent antimicrobial activity against Candida albicans at 2 to 4 uM preincubated for 10 mins in dark followed by irradiation with 0.6 to 9J/cm2 light dose incubated for 36 to 48 hrs; format: functional, organism-based; settings: dose 2-4 µM, time 2170-2890 min
Staphylococcus aureus [35] = assay: Light dose-dependent antimicrobial activity against methicillin-resistant Staphylococcus aureus at 2 to 4 uM preincubated for 10 mins in dark followed by irradiation with 0.6 to 6J/cm2 light dose incubated for 36 to 48 hrs; format: functional, organism-based; settings: dose 2-4 µM, time 2170-2890 min
Cell membrane [36] = assay: Binding affinity to Staphylococcus aureus cell membrane assessed as reduction in zeta potential by zetasizer-based analysis; format: subcellular
Cell membrane [37] = assay: Binding affinity to Escherichia coli cell membrane assessed as reduction in zeta potential by zetasizer-based analysis; format: subcellular

Q: With `CC1=C(I)C(C)=[N+]2C1=Cc1c(C)c(I)c(C)n1[B-]2(OCC[N+](C)(C)C)OCC[N+](C)(C)C` as the compound, how does the Activity [1] read?
A: The Activity was 0.58.

Q: What about the logP at 24 h [2] of the same compound?
A: Its logP at 24 h is -1.21.

Q: And the MIC (Staphylococcus aureus [3])?
A: Its MIC is 30 µM.

Q: What about the MIC (Escherichia coli [4]) of the same compound?
A: The MIC was 40 µM.

Q: And the MIC (Candida albicans [5])?
A: Its MIC is 40 µM.

Q: And the MIC (Staphylococcus aureus [6])?
A: The MIC was 20 µM.

Q: And the Activity (Staphylococcus aureus [7])?
A: Its Activity is “inactive”.

Q: What about the Activity (Escherichia coli [8]) of the same compound?
A: The Activity was “inactive”.

Q: And the Activity (Candida albicans [9])?
A: The Activity was “inactive”.

Q: And the Activity (Staphylococcus aureus [10])?
A: The Activity was “inactive”.

Q: Which logP at 24 h [2] does the source give for `CC1=CC(C)=[N+]2C1=Cc1c(C)cc(C)n1[B-]2(C#CC[N+](C)(C)C)C#CC[N+](C)(C)C.[I-].[I-]` here?
A: Its logP at 24 h is -1.97.

Q: What about the Drug uptake [11] of the same compound?
A: The Drug uptake was “Active”.

Q: And the Drug uptake [12]?
A: The Drug uptake was “Active”.

Q: With `CC1=C(I)C(C)=[N+]2C1=Cc1c(C)c(I)c(C)n1[B-]2(OCCCc1cc[n+](C)cc1)OCCCc1cc[n+](C)cc1` as the compound, how does the Activity [1] read?
A: Its Activity is 0.74.

Q: What about the logP at 24 h [2] of the same compound?
A: The logP at 24 h was -0.91.

Q: And the MIC (Staphylococcus aureus [3])?
A: The MIC was 1.25 µM.

Q: What about the MIC (Escherichia coli [4]) of the same compound?
A: Its MIC is 1.25 µM.

Q: What about the MIC (Candida albicans [5]) of the same compound?
A: The MIC was 5 µM.

Q: What about the MIC (Staphylococcus aureus [6]) of the same compound?
A: The MIC was 1.25 µM.

Q: And the Activity (Staphylococcus aureus [7])?
A: The Activity was “inactive”.

Q: And the Activity (Escherichia coli [8])?
A: The Activity was “inactive”.

Q: And the Activity (Candida albicans [9])?
A: Its Activity is “inactive”.

Q: And the Activity (Staphylococcus aureus [10])?
A: Its Activity is “inactive”.

Q: Which results are given for `CC1=C(I)C(C)=[N+]2C1=Cc1c(C)c(I)c(C)n1[B-]2(C#CC[N+](C)(C)C)C#CC[N+](C)(C)C.[I-].[I-]`?
A: Activity (Cell membrane [13]): Active; Activity [1]: 0.68; logP at 24 h [2]: -1.21; MIC (Staphylococcus aureus [3]): 1.25 µM; MIC (Escherichia coli [4]): 0.625 µM; MIC (Candida albicans [5]): 1.25 µM; MIC (Staphylococcus aureus [6]): 1.25 µM; Activity (Staphylococcus aureus [14]): Dose-dependent effect; Activity (Escherichia coli [15]): Dose-dependent effect; Activity (Candida albicans [16]): Dose-dependent effect; Activity (Staphylococcus aureus [17]): Dose-dependent effect; Activity (Staphylococcus aureus [18]): inactive; Activity (Escherichia coli [19]): inactive; Activity (Candida albicans [20]): inactive; Activity (Staphylococcus aureus [21]): inactive; Activity (Staphylococcus aureus [22]): 85.3%; Activity (Escherichia coli [23]): 71%; Activity (Candida albicans [24]): 90.8%; Activity (Staphylococcus aureus [25]): inactive; Activity (Escherichia coli [26]): inactive; Activity (Candida albicans [27]): inactive; Activity (Cell membrane [28]): Active; Activity (Candida albicans [29]): Active; Activity (HaCaT [30]): Non-Toxic; IC50 (HaCaT [31]): 4 µM; Activity (Staphylococcus aureus [7]): inactive; Activity (Escherichia coli [8]): inactive; Activity (Candida albicans [9]): inactive; Activity (Staphylococcus aureus [10]): inactive; Activity (Staphylococcus aureus [32]): Active; Activity (Escherichia coli [33]): Active; Activity (Candida albicans [34]): Active; Activity (Staphylococcus aureus [35]): Active; Activity (Cell membrane [36]): Active; Activity (Cell membrane [37]): Active

Q: Which results are given for `CC1=C(I)C(C)=[N+]2C1=Cc1c(C)c(I)c(C)n1[B-]2(C#Cc1cc[n+](C)cc1)C#Cc1cc[n+](C)cc1`?
A: Activity [1]: 0.54; logP at 24 h [2]: -0.63; MIC (Staphylococcus aureus [3]): 1.25 µM; MIC (Escherichia coli [4]): 1.25 µM; MIC (Candida albicans [5]): 0.625 µM; MIC (Staphylococcus aureus [6]): 0.625 µM; Activity (Staphylococcus aureus [7]): inactive; Activity (Escherichia coli [8]): inactive; Activity (Candida albicans [9]): inactive; Activity (Staphylococcus aureus [10]): inactive

Q: Which results are given for `CC[N+](C)(CC)CCCO[B-]1(OCCC[N+](C)(CC)CC)n2c(C)c(I)c(C)c2C=C2C(C)=C(I)C(C)=[N+]21`?
A: Activity [1]: 0.75; logP at 24 h [2]: -0.93; MIC (Staphylococcus aureus [3]): 20 µM; MIC (Escherichia coli [4]): 40 µM; MIC (Candida albicans [5]): 40 µM; MIC (Staphylococcus aureus [6]): 20 µM; Activity (Staphylococcus aureus [7]): inactive; Activity (Escherichia coli [8]): inactive; Activity (Candida albicans [9]): inactive; Activity (Staphylococcus aureus [10]): inactive

Q: For `CC[N+](C)(CC)CCO[B-]1(OCC[N+](C)(CC)CC)n2c(C)c(I)c(C)c2C=C2C(C)=C(I)C(C)=[N+]21`, which Activity [1] is on record?
A: The Activity was 0.65.

Q: What about the logP at 24 h [2] of the same compound?
A: The logP at 24 h was -1.36.

Q: What about the MIC (Staphylococcus aureus [3]) of the same compound?
A: The MIC was 30 µM.

Q: And the MIC (Escherichia coli [4])?
A: Its MIC is 40 µM.

Q: What about the MIC (Candida albicans [5]) of the same compound?
A: Its MIC is 40 µM.

Q: What about the MIC (Staphylococcus aureus [6]) of the same compound?
A: The MIC was 40 µM.

Q: What about the Activity (Staphylococcus aureus [7]) of the same compound?
A: Its Activity is “inactive”.

Q: And the Activity (Escherichia coli [8])?
A: The Activity was “inactive”.

Q: And the Activity (Candida albicans [9])?
A: The Activity was “inactive”.

Q: What about the Activity (Staphylococcus aureus [10]) of the same compound?
A: The Activity was “inactive”.
